System: NASH patients
Assay: MAESTRO-NASH: efficacy by baseline body weight and BMI
Format: in vivo, human
Conditions: for ≥30% Reduction in MRI-PDFF at Week 52, Assessment (%) / ≥120% Increase in SHBG at Week 52, Assessment (%): post hoc
Description: In the MAESTRO-NASH study, randomization to 80 mg and 100 mg doses was equal across all body weights. Analyses were conducted to provide additional evidence of a relationship between resmetirom dose, baseline body weight and body mass index (BMI), and safety/efficacy readouts. […] The only variable that determined exposure to resmetirom in the NASH population was body weight. […] Study median body weight was 100 kg. […] et al. (2024). CAP was stable over time, both doses showing a similar durable response (FIG. 30B).

SMILES: CC(C)c1cc(Oc2c(Cl)cc(-n3nc(C#N)c(=O)[nH]c3=O)cc2Cl)n[nH]c1=O [Resmetirom, 2-(3,5-dichloro-4-((5-isopropyl-6-oxo-1,6-dihydropyridazin-3-yl)oxy)phenyl)-3,5-dioxo-2,3,4,5-tetrahydro-1,2,4-triazine-6-carbonitrile]
- Discontinued Study Prior to Week 52: number (80 mg, 80-<90 kg): 6
- Discontinued Study Prior to Week 52: percentage (in parentheses) (80 mg, 80-<90 kg): (10.3)
- Week 52 MITT Consensus Fibrosis Improvement Responder: number (80 mg, 80-<90 kg): 20
- Week 52 MITT Consensus Fibrosis Improvement Responder: percentage (in parentheses) (80 mg, 80-<90 kg): (34.5)
- Week 52 MITT Consensus NASH Resolution Responder: number (80 mg, 80-<90 kg): 17
- Week 52 MITT Consensus NASH Resolution Responder: percentage (in parentheses) (80 mg, 80-<90 kg): (29.3)
- Week 52 Paired Biopsies Consensus Fibrosis Improvement Responder: number (80 mg, 80-<90 kg): 20
- Week 52 Paired Biopsies Consensus Fibrosis Improvement Responder: percentage (in parentheses) (80 mg, 80-<90 kg): (40.8)
- Week 52 Paired Biopsies Consensus NASH Resolution Responder: number (80 mg, 80-<90 kg): 17
- Week 52 Paired Biopsies Consensus NASH Resolution Responder: percentage (in parentheses) (80 mg, 80-<90 kg): (34.7)
- ≥30% reduction in MRI-PDFF at Week 52: number of patients (80 mg, 80-<90 kg): 28
- ≥30% reduction in MRI-PDFF at Week 52: percentage of patients (in parentheses) (80 mg, 80-<90 kg): (63.6)
- ≥120% increase in SHBG at Week 52: number of patients (80 mg, 80-<90 kg): 30
- ≥120% increase in SHBG at Week 52: percentage of patients (in parentheses) (80 mg, 80-<90 kg): (56.6)
- Discontinued Study Prior to Week 52: number (80 mg, 90-<100 kg): 6
- Discontinued Study Prior to Week 52: percentage (in parentheses) (80 mg, 90-<100 kg): (10.2)
- Week 52 MITT Consensus Fibrosis Improvement Responder: number (80 mg, 90-<100 kg): 15
- Week 52 MITT Consensus Fibrosis Improvement Responder: percentage (in parentheses) (80 mg, 90-<100 kg): (25.4)
- Week 52 MITT Consensus NASH Resolution Responder: number (80 mg, 90-<100 kg): 15
- Week 52 MITT Consensus NASH Resolution Responder: percentage (in parentheses) (80 mg, 90-<100 kg): (25.4)
- Week 52 Paired Biopsies Consensus Fibrosis Improvement Responder: number (80 mg, 90-<100 kg): 15
- Week 52 Paired Biopsies Consensus Fibrosis Improvement Responder: percentage (in parentheses) (80 mg, 90-<100 kg): (30.6)
- Week 52 Paired Biopsies Consensus NASH Resolution Responder: number (80 mg, 90-<100 kg): 15
- Week 52 Paired Biopsies Consensus NASH Resolution Responder: percentage (in parentheses) (80 mg, 90-<100 kg): (30.6)
- ≥30% reduction in MRI-PDFF at Week 52: number of patients (80 mg, 90-<100 kg): 28
- ≥30% reduction in MRI-PDFF at Week 52: percentage of patients (in parentheses) (80 mg, 90-<100 kg): (62.2)
- ≥120% increase in SHBG at Week 52: number of patients (80 mg, 90-<100 kg): 28
- ≥120% increase in SHBG at Week 52: percentage of patients (in parentheses) (80 mg, 90-<100 kg): (52.8)
- Discontinued Study Prior to Week 52: number (80 mg, 100-<110 kg): 3
- Discontinued Study Prior to Week 52: percentage (in parentheses) (80 mg, 100-<110 kg): (6.5)
- Week 52 MITT Consensus Fibrosis Improvement Responder: number (80 mg, 100-<110 kg): 8
- Week 52 MITT Consensus Fibrosis Improvement Responder: percentage (in parentheses) (80 mg, 100-<110 kg): (17.4)
- Week 52 MITT Consensus NASH Resolution Responder: number (80 mg, 100-<110 kg): 13
- Week 52 MITT Consensus NASH Resolution Responder: percentage (in parentheses) (80 mg, 100-<110 kg): (28.3)
- Week 52 Paired Biopsies Consensus Fibrosis Improvement Responder: number (80 mg, 100-<110 kg): 8
- Week 52 Paired Biopsies Consensus Fibrosis Improvement Responder: percentage (in parentheses) (80 mg, 100-<110 kg): (22.2)
- Week 52 Paired Biopsies Consensus NASH Resolution Responder: number (80 mg, 100-<110 kg): 13
- Week 52 Paired Biopsies Consensus NASH Resolution Responder: percentage (in parentheses) (80 mg, 100-<110 kg): (36.1)
- ≥30% reduction in MRI-PDFF at Week 52: number of patients (80 mg, 100-<110 kg): 23
- ≥30% reduction in MRI-PDFF at Week 52: percentage of patients (in parentheses) (80 mg, 100-<110 kg): (67.6)
- ≥120% increase in SHBG at Week 52: number of patients (80 mg, 100-<110 kg): 14
- ≥120% increase in SHBG at Week 52: percentage of patients (in parentheses) (80 mg, 100-<110 kg): (34.1)
- Discontinued Study Prior to Week 52: number (80 mg, <80 kg): 6
- Discontinued Study Prior to Week 52: percentage (in parentheses) (80 mg, <80 kg): (10.0)
- Week 52 MITT Consensus Fibrosis Improvement Responder: number (80 mg, <80 kg): 17
- Week 52 MITT Consensus Fibrosis Improvement Responder: percentage (in parentheses) (80 mg, <80 kg): (28.3)
- Week 52 MITT Consensus NASH Resolution Responder: number (80 mg, <80 kg): 15
- Week 52 MITT Consensus NASH Resolution Responder: percentage (in parentheses) (80 mg, <80 kg): (25.0)
- Week 52 Paired Biopsies Consensus Fibrosis Improvement Responder: number (80 mg, <80 kg): 17
- Week 52 Paired Biopsies Consensus Fibrosis Improvement Responder: percentage (in parentheses) (80 mg, <80 kg): (34.7)
- Week 52 Paired Biopsies Consensus NASH Resolution Responder: number (80 mg, <80 kg): 15
- Week 52 Paired Biopsies Consensus NASH Resolution Responder: percentage (in parentheses) (80 mg, <80 kg): (30.6)
- ≥30% reduction in MRI-PDFF at Week 52: number of patients (80 mg, <80 kg): 34
- ≥30% reduction in MRI-PDFF at Week 52: percentage of patients (in parentheses) (80 mg, <80 kg): (73.9)
- ≥120% increase in SHBG at Week 52: number of patients (80 mg, <80 kg): 39
- ≥120% increase in SHBG at Week 52: percentage of patients (in parentheses) (80 mg, <80 kg): (72.2)
- ≥30% Reduction in MRI-PDFF at Week 52, Assessment (%) (80 mg, body weight >100 kg): 56.7%
- ≥120% Increase in SHBG at Week 52, Assessment (%) (80 mg, body weight >100 kg): 29.6%
- ≥30% Reduction in MRI-PDFF at Week 52, Assessment (%) (80 mg, body weight ≤100 kg): 66.9%
- ≥120% Increase in SHBG at Week 52, Assessment (%) (80 mg, body weight ≤100 kg): 60.9%
- Discontinued Study Prior to Week 52: number (80 mg, ≥110 kg): 19
- Discontinued Study Prior to Week 52: percentage (in parentheses) (80 mg, ≥110 kg): (19.2)
- Week 52 MITT Consensus Fibrosis Improvement Responder: number (80 mg, ≥110 kg): 17
- Week 52 MITT Consensus Fibrosis Improvement Responder: percentage (in parentheses) (80 mg, ≥110 kg): (17.2)
- Week 52 MITT Consensus NASH Resolution Responder: number (80 mg, ≥110 kg): 17
- Week 52 MITT Consensus NASH Resolution Responder: percentage (in parentheses) (80 mg, ≥110 kg): (17.2)
- Week 52 Paired Biopsies Consensus Fibrosis Improvement Responder: number (80 mg, ≥110 kg): 17
- Week 52 Paired Biopsies Consensus Fibrosis Improvement Responder: percentage (in parentheses) (80 mg, ≥110 kg): (22.7)
- Week 52 Paired Biopsies Consensus NASH Resolution Responder: number (80 mg, ≥110 kg): 17
- Week 52 Paired Biopsies Consensus NASH Resolution Responder: percentage (in parentheses) (80 mg, ≥110 kg): (22.7)
- ≥30% reduction in MRI-PDFF at Week 52: number of patients (80 mg, ≥110 kg): 33
- ≥30% reduction in MRI-PDFF at Week 52: percentage of patients (in parentheses) (80 mg, ≥110 kg): (51.6)
- ≥120% increase in SHBG at Week 52: number of patients (80 mg, ≥110 kg): 21
- ≥120% increase in SHBG at Week 52: percentage of patients (in parentheses) (80 mg, ≥110 kg): (28.0)
- Discontinued Study Prior to Week 52: number (100 mg, 80-<90 kg): 4
- Discontinued Study Prior to Week 52: percentage (in parentheses) (100 mg, 80-<90 kg): (8.2)
- Week 52 MITT Consensus Fibrosis Improvement Responder: number (100 mg, 80-<90 kg): 13
- Week 52 MITT Consensus Fibrosis Improvement Responder: percentage (in parentheses) (100 mg, 80-<90 kg): (26.5)
- Week 52 MITT Consensus NASH Resolution Responder: number (100 mg, 80-<90 kg): 16
- Week 52 MITT Consensus NASH Resolution Responder: percentage (in parentheses) (100 mg, 80-<90 kg): (32.7)
- Week 52 Paired Biopsies Consensus Fibrosis Improvement Responder: number (100 mg, 80-<90 kg): 13
- Week 52 Paired Biopsies Consensus Fibrosis Improvement Responder: percentage (in parentheses) (100 mg, 80-<90 kg): (31.7)

Reference: patent publication US12377104B1, “Methods for treating a fatty liver disease” (Madrigal Pharmaceuticals, Inc., priority 2024, dated 2025)
